{"source": "patent US6482827B1", "about": "“Matrix metalloproteinase inhibitors” (Pharmacia & Upjohn S.p.A., priority 1997, dated 2002)", "key": {"[1]": {"biological_target": "T1, Human collagenase (MMP-1) (Homo sapiens, UniProt P03956)", "T1 sequence (P03956 101-269)": "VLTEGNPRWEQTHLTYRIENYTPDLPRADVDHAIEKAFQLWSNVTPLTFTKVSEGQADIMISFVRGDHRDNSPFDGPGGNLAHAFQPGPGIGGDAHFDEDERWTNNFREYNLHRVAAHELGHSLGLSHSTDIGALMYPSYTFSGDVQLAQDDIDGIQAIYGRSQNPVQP", "experiment": "Biochemical assay (Protocol A), Ki at steady state, MMP-1", "settings": "preincubation, 37° C., pH=7.4, read-out: Ki at steady state (Ki*) for inhibition of MMP-1", "procedure": "(§1) Human gelatinase-A (MMP-2) was obtained as pro-enzyme (72 kDa) and was activated with 1 mM 4-aminophenylmercuric acetate for 30 min at 37° C. immediately prior to use. Human stromelysin-1-255 (MMP-3) was obtained as a recombinant pro-enzyme isolated from E. coli and activated by heat (1 h, 55° C.).\n(§2) The substrate was the commercial quenched-fluorescence peptide Mca-Pro-Leu-Gly-Leu-Dpa-Ala-Arg-NH2, that is (7-methoxycoumarin4-yl)Acetyl-Pro-Leu-Glv-Leu-(3-[2,4-dinitrophenyl]-L-2,3-diamino-propionyl)-Ala-Arg-NH2 (C. G. Knight et al., FEBS Lett.296:263, 1992). The enzymes cleave at the Gly-Leu bond, removing the internally quenching Dpa group. Release of the highly fluorescent peptide Mca-Pro-Leu was followed fluorimetrically at 37° C. using a Perkin Elmer LS-50 Fluorescence Spectrophotometer fitted with a thermostatted four position stirring cell changer. The excitation wavelength was set at 326 nm (bandwidth 5 nm) and the emission at 392 nm (bandwidth 20 nm). Km values of this substrate for the three MMP's is 70 μM or more (Knight et al., reference above). Substrate concentration was 2 μM in the tests, so that we could approximate to unit the term (1+[substrate]/KM) in calculations. The substrate was stable for over 60 minutes in the assay conditions, giving no appreciable increment of fluorescence. Full response was adjusted against 200 nM Mca-Pro-Leu-OH (the released fluorescent peptide) and the instrument was calibrated in the range 0-100 nM Mca-Pro-Leu-OH, corresponding to 0-5% extent of hydrolysis of the 2 μM substrate. The aqueous assay buffer was 50 mM Tris/HCl pH=7.4 containing 0.15 M NaCl, 10 mM CaCl2, 0.01 mM ZnCl2 and 0.05% Brij 35. The concentration of the activated enzyme was determined by titration against representative inhibitors described in the literature and synthesized in house: Roche Ro31-9790 (N. G. Knebel et al., J. Chromatogr. B 673:213, 1995) for MMP-1, and Celltech CT-1418 (compound 1 in S. K. Chander, J. Pharm. Sci. 84:404, 1995) for MMP-2 and MMP-3. Enzyme concentrations in the tests were set at 1.0 nM for MMP-1, 0.04 nM for MMP-2, and 3.0 nM for M-3. Under our assay conditions, we measured keat/KM values of 26900, 669000 and 9740 1/(M×s) for MMP-1, MMP-2 and MMP-3, respectively. All the three enzymes were found stable for over three hours in the assay conditions.\n(§3) The inhibition constant for compounds of the present invention was measured at steady state (Ki*; see J. F. Morrison and C. T. Walsh, Adv. Enzymol. Relat. Areas Mol. Biol. 61:201, 1988), upon preincubation experiment, by measuring V0, the initial rate in the absence of inhibitor, and Vs, the steady-state velocity, at different concentrations of inhibitors in the region of their enzyme-inhibitor dissociation constants.\n(§4) On a routine basis, 1.94 mL of assay buffer was pre-heated at 37° C. in a vial, 0.02 mL of inhibitor in DMSO (or DMSO only), and 0.02 ml of 100 nM MMP-1 or 4 nM MMP-2 or 300 nM MMP-3 were added, mixed, and the vial was held at 37° C. for 5-180 minutes. Then 0.02 ml of 0.2 mM substrate was added, mixed and transferred into a pre-heated cell. The sample was allowed to equilibrate in the cuvette for 3-5 min at 37° C. against small changes in temperature and changes in the enzyme-inhibitor equilibria related to addition of substrate. After that, the linear increase of fluorescence was monitored over 3-5 min, and the slope (Vo or Vs) was obtained. Inhibitor concentrations were varied to collect data over Vs/Vo ratio ranging from 0.05 to 0.95. The values of Ki* were calculated by nonlinear weighted regression to the tight-binding equation according to Morrison and Walsh above:\n(§5) Vs/Vo=[1/(2×Et)]×SQR[(Ki*+It−Et)^2+4×Ki*×Et]−(Ki*+It−Et)\n(§6) wherein Et is the total enzyme concentration, and It is the total inhibitor concentration. The following Table I lists Ki* obtained for some representative examples: […]"}, "[2]": {"biological_target": "T2, Human gelatinase-A (MMP-2) (Homo sapiens, UniProt P08253)", "T2 sequence (P08253 110-660)": "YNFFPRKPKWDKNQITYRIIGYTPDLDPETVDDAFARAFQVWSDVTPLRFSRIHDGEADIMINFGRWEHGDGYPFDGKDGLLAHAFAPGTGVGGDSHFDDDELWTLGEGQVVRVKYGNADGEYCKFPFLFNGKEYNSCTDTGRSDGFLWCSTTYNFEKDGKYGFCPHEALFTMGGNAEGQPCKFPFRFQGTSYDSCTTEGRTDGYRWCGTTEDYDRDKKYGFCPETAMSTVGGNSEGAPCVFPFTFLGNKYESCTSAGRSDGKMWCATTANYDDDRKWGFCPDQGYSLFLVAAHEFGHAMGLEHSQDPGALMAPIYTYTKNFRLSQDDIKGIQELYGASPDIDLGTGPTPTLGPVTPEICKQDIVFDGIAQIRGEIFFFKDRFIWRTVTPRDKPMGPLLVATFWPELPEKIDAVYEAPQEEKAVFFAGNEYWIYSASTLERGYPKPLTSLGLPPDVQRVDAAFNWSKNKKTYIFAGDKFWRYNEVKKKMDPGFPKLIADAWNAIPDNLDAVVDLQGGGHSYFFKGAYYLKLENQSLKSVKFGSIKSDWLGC", "experiment": "Biochemical assay (Protocol A), Ki at steady state, MMP-2", "settings": "preincubation, 37° C., pH=7.4, read-out: Ki at steady state (Ki*) for inhibition of MMP-2", "procedure": "as §1, §2, §3, §4, §5, §6"}, "[3]": {"biological_target": "T3, Human stromelysin-1-255 (MMP-3) (Homo sapiens, UniProt P08254)", "T3 construct": "host or cells: E. coli", "T3 sequence (P08254 100-255 limits assumed)": "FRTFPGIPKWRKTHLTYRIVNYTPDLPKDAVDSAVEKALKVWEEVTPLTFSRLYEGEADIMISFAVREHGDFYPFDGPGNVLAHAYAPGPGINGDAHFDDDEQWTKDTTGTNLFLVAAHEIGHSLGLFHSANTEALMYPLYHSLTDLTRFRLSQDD", "experiment": "Biochemical assay (Protocol A), Ki at steady state, MMP-3", "settings": "preincubation, 37° C., pH=7.4, read-out: Ki at steady state (Ki*) for inhibition of MMP-3", "procedure": "as §1, §2, §3, §4, §5, §6"}, "Aqueous solubility": {"experiment": "Aqueous solubility", "assay_type": "physicochemical", "settings": "water; 25° C., Conditions B"}, "[4]": {"experiment": "PK parameters in rats, iv route", "settings": "rat, in vivo, 10-15 mg/kg", "procedure": "As a further example, Table 3 reports clearance and AUC values measured after intravenous administration to rats of a […] of some representative compounds of the present invention."}, "[5]": {"experiment": "PK parameters, oral route, rat", "assay_type": "in vivo", "settings": "plasma, 10-15 mg/kg", "procedure": "(§7) As an additional example, Table 4 reports the maximum plasma concentration (Cmax) and oral bioavailability (% F; calculated from dose-normalised ratio of oral to i.v. mean AUC values) after oral administration to rats or cynomolgus monkeys of a […] of some representative compounds of the present invention."}, "[6]": {"experiment": "PK parameters, oral route, cynomolgus monkey", "assay_type": "in vivo", "settings": "plasma, 10-15 mg/kg", "procedure": "as §7"}, "stifle joints": {"tested_on": "stifle joints", "experiment": "Animal model of tolerability with MMP inhibitors, histological evaluation of stifle joints", "assay_type": "in vivo", "settings": "rats, intraperitoneal, 10 consecutive days, daily doses of 150 mg/kg or less", "excerpt": "Although MMPs have been recognized as drug targets for at least 20 years, and potent MMP inhibitors described by formula (A) have been disclosed since 1986 or before (e.g., see J. P. Dickens et al., U.S. Pat. No. 4,599,361), no drug of this type has arrived at the market yet. This is not because of questions about the therapeutic potential of MMP inhibitors, but because of problems of “peptide-based hydroxamates”, such as aqueous solubility, metabolic stability, and other desirable properties, oral bioavailability in particular (e.g., J. R. Porter, reference above; J. Hodgson, “Remodelling MMPIs”, Biotechnology 13:554-557, 1995). For example, it is well known that most “peptide-based hydroxamates” of general formula (A) are rapidly glucuronidated, oxidized to the carboxylic acid, and excreted in the bile (e.g., see J. Singh et al., Bioorg. Med. Chem. Lett. 5:337-342, 1995, and other references above). Finally, another type of problem of the known inhibitors described by general formula (A) may be one of tolerability. […] We have extended these observations by developing an animal model of tolerability with MMP inhibitors (S. Castellino et al., unpublished), involving intraperitoneal administration of the latter in rats for 10 consecutive days, and histological evaluation of stifle joints at the end of treatment. […]"}, "[7]": {"settings": "clinic; cited from earlier work"}, "[8]": {"settings": "dose-normalised ratio of oral to i.v. mean AUC, read-out: % F (oral bioavailability)"}}}
{"molecule": "N[C@H](C(=O)NO)[C@@H](CC1CCCC1)C(=O)N1CCN(Cc2ccc3c(c2)OCO3)CC1", "note": "[Example 27, (3S-Amino-2R-cyclopentylmethyl-4-hydroxyamino)succinyl-(4-piperonyl)piperazinamide]", "values": [{"measurement": "Ki", "setting": "[1]", "result": 6.5, "unit": "nM"}, {"measurement": "Ki", "setting": "[2]", "result": 20, "unit": "nM"}, {"measurement": "Ki", "setting": "[3]", "result": 240, "unit": "nM"}, {"measurement": "solubility", "setting": "Aqueous solubility", "result": 7100, "unit": "µg/mL"}, {"measurement": "AUC", "setting": "[4]", "result": 11300, "unit": "ng·h/mL"}, {"measurement": "clearance", "setting": "[4]", "result": 23, "unit": "mL/min/kg"}, {"measurement": "bioavailability", "setting": "[5]; [8]", "result": 58, "unit": "%"}, {"measurement": "Cmax", "setting": "[5]; read-out: Cmax", "result": 7910, "unit": "ng/mL"}, {"measurement": "bioavailability", "setting": "[6]; [8]", "result": 34, "unit": "%"}, {"measurement": "Cmax", "setting": "[6]; read-out: Cmax", "result": 3130, "unit": "ng/mL"}]}
{"molecule": "CNC(=O)[C@@H](NC(=O)[C@@H](CC(=O)NO)CC(C)C)C(C)(C)C", "note": "[Ro31-9790]", "values": [{"measurement": "Histological findings in stifle joints", "setting": "stifle joints", "result": "hypertrophic fibrosis of stifle ligaments, interstitial hypertrophic fibrosis of skeletal muscles, hypertrophic fibroplasia of the periostium and synovium, and chondrosysplasia and decreased endochondrial ossification of the ephyseal plate"}]}
{"molecule": "CNC(=O)[C@@H](NC(=O)[C@H](CC(C)C)[C@H](O)C(=O)NO)C(C)(C)C", "note": "[marimastat]", "values": [{"measurement": "Tolerability in humans", "setting": "[7]", "result": "muscoloskeletal problems"}]}
